What was measured:
HCT116 MTAP+/+ = experiment: Inhibition of cellular proliferation, 4 days, Cell Titer Glo, HCT116 MTAP+/+; assay type: cell-based; conditions: Homo sapiens, HCT-116, 96 h, IC50 bin with Max Inh., read-out: 4 Day Relative Growth Inhibition (MTAP +/+)
Summary of the method: (§1)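 IC50 derived from blank-corrected ATP luminescence (Cell Titer Glo) expressed relative to within-plate 0.2% DMSO wells. Compound, as a 10-point 3-fold series, was added 24 h after seeding the MTAP+/+ or MTAP−/− HCT116 cells and incubated 4 days at 37° C./5% CO2.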

[1] = system: SAM in HCT116 human colon carcinoma cell line with MTAP gene deleted (MTAP −/−); experiment: Cellular assay of target engagement (SAM), LC-MS/MS, 72 hrs; assay type: cell-based; conditions: HCT-116, IC50 bin with Max Inh., read-out: Cell 72 h SAM Inhibition (MTAP −/−)
Summary of the method: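 SAM levels were quantified by LC-MS/MS (m/z 399.2→250.1, d3-SAM internal standard) from cold methanol/acetic acid extracts, yielding IC50. Compound was applied as a 10-point 3-fold series for 72 hrs to MTAP −/− HCT116 cells seeded 24 hours before.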

HCT116 MTAP−/− = experiment: Inhibition of cellular proliferation, 4 days, Cell Titer Glo, HCT116 MTAP−/−; assay type: cell-based; conditions: Homo sapiens, HCT-116, 96 h, IC50 bin with Max Inh., read-out: 4 Day Relative Growth Inhibition (MTAP −/−)
Summary of the method: as §1

MAT2A homodimer = target: T1, MAT2A homodimer (Homo sapiens, UniProt P31153); experiment: MAT2A inhibition (biochemical, liberated phosphate, PiColorLock Gold); conditions: recombinant MAT2A homodimer; IC50 bin with Max Inh.; read-out: Enzyme Inhibition Bin
T1 construct: inferred from Ni sepharose purification with imidazole elution; made in house; host or cells: Sf9 insect cells, baculovirus (Bac to Bac, pFASTBAC1)
T1 sequence (P31153 whole entry): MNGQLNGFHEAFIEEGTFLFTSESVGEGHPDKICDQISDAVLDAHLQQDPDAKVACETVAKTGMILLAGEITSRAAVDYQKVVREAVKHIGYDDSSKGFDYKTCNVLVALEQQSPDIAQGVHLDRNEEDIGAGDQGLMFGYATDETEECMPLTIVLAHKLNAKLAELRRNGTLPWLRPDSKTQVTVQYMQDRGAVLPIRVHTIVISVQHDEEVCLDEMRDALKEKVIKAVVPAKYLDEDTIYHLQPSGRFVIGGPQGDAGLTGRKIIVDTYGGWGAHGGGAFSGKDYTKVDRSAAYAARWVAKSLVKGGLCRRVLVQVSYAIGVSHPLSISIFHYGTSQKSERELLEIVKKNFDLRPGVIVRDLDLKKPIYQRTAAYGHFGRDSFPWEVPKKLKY
Summary of the method: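 Enzyme at 4 μg/mL and compound equilibrated 60 min at 25 °C, then 60 min reaction after adding substrate mix (500 μM ATP, 400 μM methionine). Released phosphate quantified by colorimetric kit against a phosphate standard curve to give IC50. Secondary format used 1 μg/mL enzyme with 5 h incubation.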

Compound	IC50 (HCT116 MTAP+/+)	IC50 [1]	IC50 (HCT116 MTAP−/−)	IC50 (MAT2A homodimer)
Cn1cc2cc(-n3nc4c(S(N)(=O)=O)cn(CC5CC5)c4c(-c4ccc(OC(F)F)cc4)c3=O)ccc2n1 [Example 184, 5-(cyclopropylmethyl)-4-(4-(difluoromethoxy)phenyl)-2-(2-methyl-2H-indazol-5-yl)-3-oxo-3,5-dihydro-2H-pyrrolo[3,2-c]pyridazine-7-sulfonamide]	> 1000 nM	< 100 nM	100 to 1000 nM	< 100 nM
C[C@H](O)c1cn(CC2CC2)c2c(-c3ccc(C4CC4)nc3)c(=O)n(-c3ccc4nn(C)cc4c3)nc12 [Example 250, (S)-5-(cyclopropylmethyl)-4-(6-cyclopropylpyridin-3-yl)-7-(1-hydroxyethyl)-2-(2-methyl-2H-indazol-5-yl)-2,5-dihydro-3H-pyrrolo[3,2-c]pyridazin-3-one]	> 1000 nM	< 100 nM	< 100 nM	< 100 nM
Cn1cc2cc(-n3nc4[nH]c(=O)n(CC5CC5)c4c(-c4ccc(C5CC5)cc4)c3=O)ccc2n1 [Example 204, 5-(cyclopropylmethyl)-4-(4-cyclopropylphenyl)-2-(2-methyl-2H-indazol-5-yl)-2,7-dihydro-3H-imidazo[4,5-c]pyridazine-3,6(5H)-dione]	> 1000 nM	< 100 nM	< 100 nM	< 100 nM
Cn1cc2cc(-n3nc4c(C(N)=O)cn(CC5CC5)c4c(-c4ccc(Cl)cc4)c3=O)ccc2n1 [Example 170, 4-(4-chlorophenyl)-5-(cyclopropylmethyl)-2-(2-methyl-2H-indazol-5-yl)-3-oxo-3,5-dihydro-2H-pyrrolo[3,2-c]pyridazine-7-carboxamide]	> 1000 nM	< 100 nM	< 100 nM	< 100 nM
CN(C)S(=O)(=O)c1cn(CC2CC2)c2c(-c3ccc(C4CC4)nc3)c(=O)n(-c3ccc4nn(C)cc4c3)nc12 [Example 178, 5-(cyclopropylmethyl)-4-(6-cyclopropylpyridin-3-yl)-N,N-dimethyl-2-(2-methyl-2H-indazol-5-yl)-3-oxo-3,5-dihydro-2H-pyrrolo[3,2-c]pyridazine-7-sulfonamide]	> 1000 nM	> 1000 nM	> 1000 nM	100 to 1000 nM
Cn1cc2cc(-n3nc4c(C#N)cn(CC5CC5)c4c(-c4ccc(CO)nc4)c3=O)ccc2n1 [Example 158, 5-(cyclopropylmethyl)-4-(6-(hydroxymethyl)pyridin-3-yl)-2-(2-methyl-2H-indazol-5-yl)-3-oxo-3,5-dihydro-2H-pyrrolo[3,2-c]pyridazine-7-carbonitrile]	> 1000 nM	100 to 1000 nM	100 to 1000 nM	< 100 nM
CNC(=O)c1cn(CC2CC2)c2c(-c3ccc(C4CC4)nc3)c(=O)n(-c3ccc4nn(C)cc4c3)nc12 [Example 162, 5-(cyclopropylmethyl)-4-(6-cyclopropylpyridin-3-yl)-N-methyl-2-(2-methyl-2H-indazol-5-yl)-3-oxo-2H,3H,5H-pyrrolopyridazine-7-carboxamide]	100 to 1000 nM	< 100 nM	< 100 nM	< 100 nM
Cn1cc2cc(-n3nc4nnn(CC5CC5)c4c(-c4ccc(C5CC5)cc4)c3=O)ccc2n1 [Example 209, 1-(cyclopropylmethyl)-7-(4-cyclopropylphenyl)-5-(2-methyl-2H-indazol-5-yl)-1,5-dihydro-6H-[1,2,3]triazolo[4,5-c]pyridazin-6-one]	> 1000 nM	100 to 1000 nM	100 to 1000 nM	< 100 nM
CCc1ccc(-c2c(=O)n(-c3ccc4nc(C)n(C)c4c3)nc3ccn(CC4CC4)c23)cn1 [Example 142, 5-(cyclopropylmethyl)-2-(1,2-dimethyl-1H-benzo[d]imidazol-6-yl)-4-(6-ethylpyridin-3-yl)-2,5-dihydro-3H-pyrrolo[3,2-c]pyridazin-3-one]	> 1000 nM	< 100 nM	< 100 nM	< 100 nM
[2H]C([2H])([2H])Oc1ccc(-n2nc3c(C#N)cn(CC4CC4)c3c(-c3ccc(C(F)F)nc3)c2=O)cc1 [Example 137, 5-(cyclopropylmethyl)-4-(6-(difluoromethyl)pyridin-3-yl)-2-(4-(methoxy-d3)phenyl)-3-oxo-3,5-dihydro-2H-pyrrolo[3,2-c]pyridazine-7-carbonitrile]	> 1000 nM	100 to 1000 nM	100 to 1000 nM	< 100 nM
Cc1ccc(-c2c(=O)n(-c3ccc4nn(C)cc4c3)nc3c(C(N)=O)cn(CC4CC4)c23)cn1 [Example 175, 5-(cyclopropylmethyl)-2-(2-methyl-2H-indazol-5-yl)-4-(6-methylpyridin-3-yl)-3-oxo-3,5-dihydro-2H-pyrrolo[3,2-c]pyridazine-7-carboxamide]	> 1000 nM	100 to 1000 nM	100 to 1000 nM	< 100 nM
Cn1cc2cc(-n3nc4c(c(-c5ccc(OC(F)F)cc5)c3=O)n(CC3CC3)c(=O)n4C)ccc2n1 [Example 196, 5-(cyclopropylmethyl)-4-[4-(difluoromethoxy)phenyl]-7-methyl-2-(2-methyl-2H-indazol-5-yl)-2H,3H,5H,6H,7H-imidazolidino[4,5-c]pyridazine-3,6-dione]	100 to 1000 nM	< 100 nM	< 100 nM	< 100 nM
CNC(=O)c1ccc(-c2c(=O)n(-c3ccc4nn(C)cc4c3)nc3ccn(CC4CC4)c23)cn1 [Example 144, 5-(5-(cyclopropylmethyl)-2-(2-methyl-2H-indazol-5-yl)-3-oxo-3,5-dihydro-2H-pyrrolo[3,2-c]pyridazin-4-yl)-N-methylpicolinamide]	> 1000 nM	100 to 1000 nM	> 1000 nM	100 to 1000 nM
Cn1cc2cc(-n3nc4c(C#N)cn(CC(F)(F)F)c4c(-c4ccc(C5CC5)nc4)c3=O)ccc2n1 [Example 133, 4-(6-cyclopropylpyridin-3-yl)-2-(2-methyl-2H-indazol-5-yl)-3-oxo-5-(2,2,2-trifluoroethyl)-3,5-dihydro-2H-pyrrolo[3,2-c]pyridazine-7-carbonitrile]	> 1000 nM	100 to 1000 nM	100 to 1000 nM	< 100 nM
Cc1nn(CC2CC2)c2c(-c3ccc(C4CC4)nc3)c(=O)n(-c3ccc4nn(C)cc4c3)nc12 [Example 211, 1-(cyclopropylmethyl)-7-(6-cyclopropylpyridin-3-yl)-3-methyl-5-(2-methyl-2H-indazol-5-yl)-1H,5H,6H-pyrazolo[4,3-c]pyridazin-6-one]	> 1000 nM	< 100 nM	< 100 nM	< 100 nM
Cn1cc2cc(-n3nc4cnn(CC5CC5)c4c(-c4ccc(OC(F)F)cc4)c3=O)ccc2n1 [Example 218, 1-(cyclopropylmethyl)-7-(4-(difluoromethoxy)phenyl)-5-(2-methyl-2H-indazol-5-yl)-1,5-dihydro-6H-pyrazolo[4,3-c]pyridazin-6-one]	100 to 1000 nM	< 100 nM	< 100 nM	< 100 nM
Cc1ccc(-c2c(=O)n(-c3ccc4nn(C)cc4c3)nc3[nH]c(=O)n(CC4CC4)c23)cn1 [Example 207, 5-(cyclopropylmethyl)-2-(2-methyl-2H-indazol-5-yl)-4-(6-methylpyridin-3-yl)-2,7-dihydro-3H-imidazo[4,5-c]pyridazine-3,6(5H)-dione]	> 1000 nM	< 100 nM	100 to 1000 nM	< 100 nM
CNCc1cn(CC2CC2)c2c(-c3ccc(C4CC4)nc3)c(=O)n(-c3ccc4nn(C)cc4c3)nc12 [Example 267, 5-(cyclopropylmethyl)-4-(6-cyclopropylpyridin-3-yl)-2-(2-methyl-2H-indazol-5-yl)-7-((methylamino)methyl)-2,5-dihydro-3H-pyrrolo[3,2-c]pyridazin-3-one]	> 1000 nM	100 to 1000 nM	100 to 1000 nM	< 100 nM
Cc1nc2ccc(-n3nc4c(C#N)cn(CC5CC5)c4c(-c4ccc(C5CC5)nc4)c3=O)cc2n1C [Example 148, 5-(cyclopropylmethyl)-4-(6-cyclopropylpyridin-3-yl)-2-(1,2-dimethyl-1H-benzo[d]imidazol-6-yl)-3-oxo-3,5-dihydro-2H-pyrrolo[3,2-c]pyridazine-7-carbonitrile]	< 100 nM	< 100 nM	< 100 nM	< 100 nM
Cc1ccc(-c2c(=O)n(-c3ccc4nn(C)cc4c3)nc3c(C#N)cn(CCC(F)(F)F)c23)cn1 [Example 108, 2-(2-methyl-2H-indazol-5-yl)-4-(6-methylpyridin-3-yl)-3-oxo-5-(3,3,3-trifluoropropyl)-3,5-dihydro-2H-pyrrolo[3,2-c]pyridazine-7-carbonitrile]	100 to 1000 nM	100 to 1000 nM	> 1000 nM	100 to 1000 nM
O=c1c(-c2ccc(OC(F)F)cc2)c2c(ccn2CC2CC2)nn1-c1cn[nH]c1 [Example 231, 5-(cyclopropylmethyl)-4-(4-(difluoromethoxy)phenyl)-2-(1H-pyrazol-4-yl)-2,5-dihydro-3H-pyrrolo[3,2-c]pyridazin-3-one]	> 1000 nM	100 to 1000 nM	100 to 1000 nM	< 100 nM

From patent publication US20220169654A1, “New Organic Compounds” (Servier Pharmaceuticals LLC, priority 2020, published 2022)
